In general, Kd refers to the constant that tells how readily two partners part at equilibrium. The low end stands for tighter binding, the high end for weaker binding.

Each structure is given as a SMILES string.

The test deals with MoIcl1 (Pyricularia oryzae, UniProt P0CT06). In words: biochemical. It counts as binding.
Sequence of MoIcl1 (P0CT06 whole entry, looked up): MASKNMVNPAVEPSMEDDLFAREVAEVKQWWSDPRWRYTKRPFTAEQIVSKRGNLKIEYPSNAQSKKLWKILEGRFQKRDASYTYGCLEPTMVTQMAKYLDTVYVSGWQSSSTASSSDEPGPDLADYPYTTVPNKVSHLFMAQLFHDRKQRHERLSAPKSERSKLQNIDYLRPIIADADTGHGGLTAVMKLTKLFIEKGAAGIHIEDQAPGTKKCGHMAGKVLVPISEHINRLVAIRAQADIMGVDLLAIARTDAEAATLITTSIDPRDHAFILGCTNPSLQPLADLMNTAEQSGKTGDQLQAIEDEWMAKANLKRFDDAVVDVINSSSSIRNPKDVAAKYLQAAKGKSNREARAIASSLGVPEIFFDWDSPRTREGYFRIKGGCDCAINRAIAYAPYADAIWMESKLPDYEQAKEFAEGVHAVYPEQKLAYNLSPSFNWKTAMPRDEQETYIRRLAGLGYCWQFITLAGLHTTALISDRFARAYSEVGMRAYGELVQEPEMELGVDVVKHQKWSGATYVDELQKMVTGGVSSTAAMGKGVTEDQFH

`COc1ccc2[nH]cc(CCNC(C)=O)c2c1` [melatonin, N-acetyl-5-methoxytryptamine] came in with a Kd of 287 µM.
